In ChEMBL document CHEMBL2150984, “Synthesis of fluorescent ristocetin aglycon derivatives with remarkable antibacterial and antiviral activities” (Eur J Med Chem, 2012):
Converted amounts (≈) assume the structure as drawn.

What was measured:
Staphylococcus aureus [1] = assay: Antibacterial activity against methicillin-resistant Staphylococcus aureus ATCC 33591 by broth microdilution method; format: functional
Influenza B virus = assay: Antiviral activity against Influenza B/HK/5/72 infected in MDCK cells assessed as inhibition of virus-induced cytopathic effect measured on day 3 post infection by MTS assay; format: functional, cell-based; settings: B/Hong Kong/05/1972, MDCK, 72 h
[2] = Cytotoxicity against MDCK cells assessed as minimum concentration required to cause microscopically detectable alteration measured on day 3 post infection by MTS assay; format: cell-based, Canis lupus familiaris; settings: dog
Staphylococcus aureus [3] = assay: Antibacterial activity against methicillin-sensitive Staphylococcus aureus ATCC 29213 by broth microdilution method; format: functional
H3N2 subtype = assay: Antiviral activity against Influenza A/HK/7/87 infected in MDCK cells assessed as inhibition of virus-induced cytopathic effect measured on day 3 post infection by MTS assay; format: functional, organism-based; settings: A/Hong Kong/7/1987(H3N2), 72 h
Enterococcus faecalis [4] = assay: Antibacterial activity against Enterococcus faecalis ATCC 51299 expressing vanB gene by broth microdilution method; format: functional
[5] = tested on: Staphylococcus epidermidis; assay: Antibacterial activity against biofilm forming Staphylococcus epidermidis ATCC 35984 by broth microdilution method; format: functional
Bacillus subtilis = assay: Antibacterial activity against Bacillus subtilis ATCC 6633 by broth microdilution method; format: functional
Enterococcus faecalis [6] = assay: Antibacterial activity against Enterococcus faecalis ATCC 15376 expressing vanA gene by broth microdilution method; format: functional
Influenza A virus = assay: Antiviral activity against Influenza A/PR/8/34 infected in MDCK cells assessed as inhibition of virus-induced cytopathic effect measured on day 3 post infection by MTS assay; format: functional, organism-based; settings: A/Puerto Rico/8/1934(H1N1), 72 h
[7] = tested on: Staphylococcus epidermidis; assay: Antibacterial activity against Staphylococcus epidermidis expressing mecA gene by broth microdilution method; format: functional
Enterococcus faecalis [8] = assay: Antibacterial activity against Enterococcus faecalis ATCC 29212 by broth microdilution method; format: functional

SMILES | MIC (Staphylococcus aureus [1]) [µg/mL] | EC50 (Influenza B virus) [µM] | MCC at 3 days [2] [µM] | MIC (Staphylococcus aureus [3]) [µg/mL] | EC50 (H3N2 subtype) [nM] | MIC (Enterococcus faecalis [4]) [µg/mL] | MIC [5] [µg/mL] | MIC (Bacillus subtilis) [µg/mL] | MIC (Enterococcus faecalis [6]) [µg/mL] | EC50 (Influenza A virus) [nM] | MIC [7] [µg/mL] | MIC (Enterococcus faecalis [8]) [µg/mL]
COC(=O)[C@H]1NC(=O)[C@H]2NC(=O)[C@H](NC(=O)[C@@H]3NC(=O)[C@H]4NC(=O)[C@H](NC(=O)[C@H](n5cc6cc7ccccc7cc6c5Sc5ncccn5)c5ccc(O)c(c5)Oc5cc4cc(O)c5C)[C@H](O)c4ccc(cc4)Oc4cc3cc(c4O)Oc3ccc(cc3)[C@H]2O)c2ccc(O)c(c2)-c2c(O)cc(O)cc21 | 2 (≈ 1.39 µM) | > 100 | ≥ 0.8 | 2 (≈ 1.39 µM) | 360 | 2 (≈ 1.39 µM) | 4 (≈ 2.79 µM) | 2 (≈ 1.39 µM) | 2 (≈ 1.39 µM) | 80 | 2 (≈ 1.39 µM) | 2 (≈ 1.39 µM)
NC(=O)c1ncn([C@@H]2O[C@H](CO)[C@@H](O)[C@H]2O)n1 [RIBAVIRIN] | – | – | ≥ 20 | – | 8900 | – | – | – | – | 6800 | – | –
CN[C@H](CC(C)C)C(=O)N[C@H]1C(=O)N[C@@H](CC(N)=O)C(=O)N[C@H]2C(=O)N[C@H]3C(=O)N[C@H](C(=O)N[C@H](C(=O)O)c4cc(O)cc(O)c4-c4cc3ccc4O)[C@H](O)c3ccc(c(Cl)c3)Oc3cc2cc(c3O[C@@H]2O[C@H](CO)[C@@H](O)[C@H](O)[C@H]2O[C@H]2C[C@](C)(N)[C@H](O)[C@H](C)O2)Oc2ccc(cc2Cl)[C@H]1O [VANCOMYCIN] | – | – | – | – | – | 128 (≈ 88.3 µM) | – | 0.5 (≈ 0.345 µM) | 256 (≈ 177 µM) | – | – | 1 (≈ 0.69 µM)
COC(=O)[C@H]1NC(=O)[C@H]2NC(=O)[C@H](NC(=O)[C@@H]3NC(=O)[C@H]4NC(=O)[C@H](NC(=O)[C@H](n5cc6ccccc6c5Sc5ccccc5)c5ccc(O)c(c5)Oc5cc4cc(O)c5C)[C@H](O)c4ccc(cc4)Oc4cc3cc(c4O)Oc3ccc(cc3)[C@H]2O)c2ccc(O)c(c2)-c2c(O)cc(O)cc21 | 1 (≈ 0.723 µM) | 1.4 | 6.4 | 1 (≈ 0.723 µM) | 680 | 1 (≈ 0.723 µM) | 0.5 (≈ 0.362 µM) | 2 (≈ 1.45 µM) | 4 (≈ 2.89 µM) | 670 | 1 (≈ 0.723 µM) | 2 (≈ 1.45 µM)
COC(=O)[C@H]1NC(=O)[C@H]2NC(=O)[C@H](NC(=O)[C@@H]3NC(=O)[C@H]4NC(=O)[C@H](NC(=O)[C@H](n5cc6ccccc6c5S[C@@H]5O[C@H](COC(C)=O)[C@@H](OC(C)=O)[C@H](OC(C)=O)[C@H]5OC(C)=O)c5ccc(O)c(c5)Oc5cc4cc(O)c5C)[C@H](O)c4ccc(cc4)Oc4cc3cc(c4O)Oc3ccc(cc3)[C@H]2O)c2ccc(O)c(c2)-c2c(O)cc(O)cc21 | 1 (≈ 0.611 µM) | > 100 | ≥ 4 | 2 (≈ 1.22 µM) | 72 | 8 (≈ 4.89 µM) | 1 (≈ 0.611 µM) | 8 (≈ 4.89 µM) | 8 (≈ 4.89 µM) | 160 | 4 (≈ 2.44 µM) | 2 (≈ 1.22 µM)
CC(=O)N[C@H]1[C@H]([C@H](O)[C@H](O)CO)OC(C(=O)O)=C[C@@H]1NC(=N)N [ZANAMIVIR] | – | 34 | > 100 | – | 1800 | – | – | – | – | 300 | – | –
COC(=O)[C@H]1NC(=O)[C@H]2NC(=O)[C@H](NC(=O)[C@@H]3NC(=O)[C@H]4NC(=O)[C@H](NC(=O)[C@H](n5cc6cc7ccccc7cc6c5Sc5ccccc5)c5ccc(O)c(c5)Oc5cc4cc(O)c5C)[C@H](O)c4ccc(cc4)Oc4cc3cc(c4O)Oc3ccc(cc3)[C@H]2O)c2ccc(O)c(c2)-c2c(O)cc(O)cc21 | 0.5 (≈ 0.349 µM) | > 100 | 20 | 0.5 (≈ 0.349 µM) | > 100000 | 0.5 (≈ 0.349 µM) | 1 (≈ 0.698 µM) | 0.5 (≈ 0.349 µM) | 0.5 (≈ 0.349 µM) | > 100000 | 1 (≈ 0.698 µM) | 0.5 (≈ 0.349 µM)
NC12CC3CC(CC(C3)C1)C2 [AMANTADINE] | – | > 500 | > 500 | – | 2300 | – | – | – | – | 7600 | – | –
COC(=O)[C@H]1NC(=O)[C@H]2NC(=O)[C@H](NC(=O)[C@@H]3NC(=O)[C@H]4NC(=O)[C@H](NC(=O)[C@H](n5cc6ccccc6c5S[C@@H]5O[C@H](CO)[C@@H](O)[C@H](O)[C@H]5O)c5ccc(O)c(c5)Oc5cc4cc(O)c5C)[C@H](O)c4ccc(cc4)Oc4cc3cc(c4O)Oc3ccc(cc3)[C@H]2O)c2ccc(O)c(c2)-c2c(O)cc(O)cc21 | 1 (≈ 0.681 µM) | > 100 | 20 | 1 (≈ 0.681 µM) | 2300 | 2 (≈ 1.36 µM) | 4 (≈ 2.72 µM) | 2 (≈ 1.36 µM) | 1 (≈ 0.681 µM) | 270 | 1 (≈ 0.681 µM) | 1 (≈ 0.681 µM)
COC(=O)[C@H]1NC(=O)[C@H]2NC(=O)[C@H](NC(=O)[C@@H]3NC(=O)[C@H]4NC(=O)[C@H](NC(=O)[C@H](N)c5ccc(O)c(c5)Oc5cc4cc(O)c5C)[C@H](O)c4ccc(cc4)Oc4cc3cc(c4O)Oc3ccc(cc3)[C@H]2O)c2ccc(O)c(c2)-c2c(O)cc(O)cc21 [AGLYCORISTOCETIN] | – | > 100 | > 100 | – | 6800 | – | – | – | – | 2300 | – | –
COC(=O)[C@H]1NC(=O)[C@H]2NC(=O)[C@H](NC(=O)[C@@H]3NC(=O)[C@H]4NC(=O)[C@H](NC(=O)[C@H](n5cc6ccccc6c5Sc5nc6ccccc6s5)c5ccc(O)c(c5)Oc5cc4cc(O)c5C)[C@H](O)c4ccc(cc4)Oc4cc3cc(c4O)Oc3ccc(cc3)[C@H]2O)c2ccc(O)c(c2)-c2c(O)cc(O)cc21 | 0.5 (≈ 0.347 µM) | 8.9 | 20 | 1 (≈ 0.695 µM) | 4000 | 2 (≈ 1.39 µM) | 2 (≈ 1.39 µM) | 2 (≈ 1.39 µM) | 1 (≈ 0.695 µM) | 1400 | 1 (≈ 0.695 µM) | 0.5 (≈ 0.347 µM)
COC(=O)[C@H]1NC(=O)[C@H]2NC(=O)[C@H](NC(=O)[C@@H]3NC(=O)[C@H]4NC(=O)[C@H](NC(=O)[C@H](n5cc6ccccc6c5S[C@@H]5O[C@H](COC(C)=O)[C@@H](OC(C)=O)[C@H](OC(C)=O)[C@H]5NC(C)=O)c5ccc(O)c(c5)Oc5cc4cc(O)c5C)[C@H](O)c4ccc(cc4)Oc4cc3cc(c4O)Oc3ccc(cc3)[C@H]2O)c2ccc(O)c(c2)-c2c(O)cc(O)cc21 | 4 (≈ 2.45 µM) | > 100 | 20 | 4 (≈ 2.45 µM) | 1800 | 4 (≈ 2.45 µM) | 4 (≈ 2.45 µM) | 8 (≈ 4.89 µM) | 4 (≈ 2.45 µM) | 1800 | 4 (≈ 2.45 µM) | 4 (≈ 2.45 µM)
Cc1c(O)cc2cc1Oc1cc(ccc1O)[C@@H](N)C(=O)N[C@H]1C(=O)N[C@@H]2C(=O)N[C@H]2C(=O)N[C@H]3C(=O)N[C@H](C(=O)N[C@@H](C(=O)O)c4cc(O)cc(O[C@H]5O[C@H](CO)[C@@H](O)[C@H](O)[C@@H]5O)c4-c4cc3ccc4O)[C@H](O[C@H]3C[C@@H](N)[C@@H](O)[C@H](C)O3)c3ccc(cc3)Oc3cc2cc(c3O[C@H]2O[C@@H](CO[C@H]3O[C@H](C)[C@@H](O)[C@H](O)[C@@H]3O)[C@H](O)[C@@H](O)[C@@H]2O[C@H]2O[C@H](CO)[C@@H](O)[C@H](O)[C@@H]2O[C@H]2O[C@H](CO)[C@@H](O)[C@@H]2O)Oc2ccc(cc2)[C@H]1O [RISTOCETIN] | 32 (≈ 15.6 µM) | – | – | 128 (≈ 62.3 µM) | – | 256 (≈ 125 µM) | 2 (≈ 0.974 µM) | 16 (≈ 7.79 µM) | 16 (≈ 7.79 µM) | – | 128 (≈ 62.3 µM) | 4 (≈ 1.95 µM)
